Where two headings read alike, the source gives them in different places.
What was measured:
[1] = target: T1, GppNp-loaded HIS-KRAS (G12D, aa 1-169) / cRAF RBD (Homo sapiens, UniProt P01116, G12D); assay: GTP-KRAS and cRAF interaction assay; type: binding; settings: HTRF, 2 hours at 25° C.
T1 construct: GppNp-loaded HIS-KRAS (G12D, aa 1-169)
Procedure: 2. GTP-KRAS and cRAF Interaction Assay
GppNp-loaded HIS-KRAS (G12D, aa 1-169) was pre-incubated with a compound in the presence of 200 µM GTP in a 384-well plate (Greiner) for 15 min, then cRAF RBD (GST tag, aa 50-132, CreativeBioMart), MAb Anti GST-d2 (Cisbio) and MAb Anti 6HIS-Tb cryptate Gold (Cisbio) were added to the assay wells (Final concentration: 2.0 nM GppNp-loaded HIS-KRAS (G12D), 100 μM GTP, 35 nM cRAF RBD, 1 μg/mL MAb Anti GST-d2, 52.5 ng/mL MAb Anti 6HIS-Tb cryptate Gold) and incubated for 2 hours at 25° C. Wells containing same percent of DMSO served as vehicle control, and wells without KRAS served as low control. HTRF signals were read on Tecan Spark multimode microplate reader and HTRF ratios were calculated under manufacturer's instructions. The percent of activation of compounds treated wells were normalized between vehicle control and low control (% Activation=(HTRF ratioCompound treated−HTRF ratioLow control)/(HTRF ratioVehicle control−HTRF ratioLow control)*100). Then the data were analyzed either by fitting a 4-parameter logistic model or by Excel to calculate IC50 values.

[2] = target: T2, GDP-loaded HIS-KRAS (G12D, aa 1-169) (Homo sapiens, UniProt P01116, G12D); assay: SOS1 catalyzed nucleotide exchange assay; type: biochemical; settings: SOS1 ExD, TR-FRET, 4 hours at 25° C.
T2 construct: GDP-loaded HIS-KRAS (G12D, aa 1-169)
Procedure: 1. SOS1 Catalyzed Nucleotide Exchange Assay
GDP-loaded HIS-KRAS (G12D, aa 1-169) was pre-incubated with a compound in the presence of 10 nM GDP in a 384-well plate (Greiner) for 15 min, then purified SOS1 ExD (Flag tag, aa 564-1049), BODIPY™ FL GTP (Invitrogen) and MAb (monoclonal antibody) Anti 6HIS-Tb cryptate Gold (Cisbio) were added to the assay wells (Final concentration: 1.5 nM GDP-loaded HIS-KRAS (G12D), 5 nM GDP, 0.5 μM SOS1 ExD, 80 nM BODIPY™ FL GTP, 52.5 ng/mL MAb Anti 6HIS-Tb cryptate Gold) and incubated for 4 hours at 25° C. Wells containing same percent of DMSO served as vehicle control, and wells without KRAS served as low control. TR-FRET signals were read on Tecan Spark multimode microplate reader. The parameters were F486: Excitation 340 nm, Emission 486 nm, Lag time 100 μs, Integration time 200 μs; F515: Excitation 340 nm, Emission 515 nm, Lag time 100 μs, Integration time 200 μs. TR-FRET ratios for each individual wells were calculated by equation: TR-FRET ratio=(Signal F515/Signal F486)*10000. The percent of activation of compounds treated wells were normalized between vehicle control and low control (% Activation=(TR-FRET ratioCompound treated−TR-FRET ratioLow control)/(TR-FRET ratioVehicle control−TR-FRET ratioLow control)*100%). Then the data were analyzed either by fitting a 4-parameter logistic model or by Excel to calculate IC50 values.

AsPC-1 = assay: Cell growth inhibition assay (AsPC-1); type: cell-based; settings: AsPC-1, 6 days incubation, CellTiter-Glo
Procedure: (§1) 4. Cell Growth Inhibition Assay
AsPC-1 cultured in RPMI-1640 medium (Gibco) containing 10% fetal bovine serum (Gibco). Cells in culture medium were plated in 96-well plates at a concentration of 1000 cells/well ([…]) and allowed to attach overnight.
(§2) The next day, compounds were diluted in culture medium and added to the plates. After 6 days incubation in a 37° C./5% CO2 cell incubator, the cell viability was detected by CellTiter-Glo® Luminescent Cell Viability Assay kit (Promega). Luminescent signals were read on Tecan Spark multimode microplate reader and analyzed using a 4-parameter logistic model to calculate IC50 values.

[3] = test system: AGS cells expressing KRAS G12D; assay: Phospho-ERK1/2(THR202/TYR204) HTRF assay; type: cell-based; settings: 2 hours incubation, read-out: AGS p-ERK IC50
Procedure: AGS cells expressing KRAS G12D were cultured in F12K medium (Gibco) containing 10% fetal bovine serum (Gibco). The AGS cells in culture medium were seeded in 96-well plates at a concentration of 40,000 cells/well and then put in a 37° C./5% CO2 cell incubator to incubate overnight. The next day, culture medium was removed and the compound diluted in assay medium (F12K, 0.1% FBS) was added in each well. After 2 hours incubation in a 37° C./5% CO2 cell incubator, the assay medium in 96-well plates was removed, then 50 μL of 1× blocking reagent-supplemented lysis buffer (Cisbio) was added and the plates were incubated at 25° C. for 45 min with shaking. 10 μL of cell lysates from the 96-well plates were transferred to a 384-well plate (Greiner) containing 2.5 μL/well HTRF® pre-mixed antibodies (Cisbio 64AERPEH). Incubate 4 hours at 25° C. and then read HTRF signals on Tecan Spark multimode microplate reader. The data were analyzed using a 4-parameter logistic model to calculate IC50 values.

AGS = assay: Cell growth inhibition assay (AGS); type: cell-based; settings: 6 days incubation, CellTiter-Glo
Procedure: as §1
AGS cultured in F12K medium (Gibco) containing 10% fetal bovine serum (Gibco). Cells in culture medium were plated in 96-well plates at a concentration of 500 cells/well ([…]) and allowed to attach overnight.
as §2

T1 sequence (P01116 1-169 isoform P01116-2 G12D): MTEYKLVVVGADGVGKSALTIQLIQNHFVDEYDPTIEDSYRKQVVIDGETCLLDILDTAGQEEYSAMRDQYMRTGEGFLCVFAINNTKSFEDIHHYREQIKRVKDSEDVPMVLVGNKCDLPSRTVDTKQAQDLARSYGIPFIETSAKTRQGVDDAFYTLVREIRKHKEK
T2 sequence (P01116 1-169 isoform P01116-2 G12D): as above

Row | SMILES | IC50 [1] [nM] | IC50 [2] [nM] | IC50 (AsPC-1) [nM] | IC50 [3] [nM] | IC50 (AGS) [nM] | IC50 (AsPC-1; Homo sapiens, ASPC1, 144 h) [nM] | IC50 ([3]; Homo sapiens) [nM] | IC50 (AGS; Homo sapiens, 144 h) [nM]
1 | C#Cc1cccc2cc(O)cc(-c3c(F)cc4c(N5CC6CCC(C5)N6)nc(OCC5(CN6CCOCC6)CC5)nc4c3F)c12 (single isomer, unassigned) [Compound 41B] | 50.4 | 6.9 | 3.84 | 1.01 | 0.671 |  |  | 
2 | C#Cc1cccc2cc(O)cc(-c3c(SC(F)(F)F)cc4c(N5CC6CCC(C5)N6)nc(OCC5(CN6CCOCC6)CC5)nc4c3F)c12 (single isomer, unassigned) [Compound 59B] | 6.28 | 1.65 | 5.54 | 10.8 | 6 |  |  | 
3 | C#Cc1cccc2cc(O)cc(-c3c(C#N)cc4c(N5CC6CCC(C5)N6)nc(OCC5(CN6CCOCC6)CC5)nc4c3F)c12 (single isomer, unassigned) [Compound 60B] | 62.9 | 12.5 | 207 | 6.96 | 13.1 |  |  | 
4 | C#Cc1cccc2cc(O)cc(-c3c(Cl)cc4c(N5CC6CCC(C5)N6)nc(OC[C@@]56CCCN5C[C@H](F)C6)nc4c3F)c12 (single isomer, unassigned) [Compound 72B] | 23 | 3.3 | 48.7 | 1.51 | 4.71 |  |  | 
5 | C#Cc1cccc2cc(O)cc(-c3c(C(F)(F)F)cc4c(N5CC6CCC(C5)N6)nc(OCC5(CN6CCOCC6)CC5)nc4c3F)c12 (single isomer, unassigned) [Compound 98A] | 4260 | 219 | 1440 | 1830 | 319 |  |  | 
6 | C#Cc1cccc2cc(O)cc(-c3c(C(F)(F)F)cc4c(N5CC6CCC(C5)N6)nc(OCC5(CN6CCOCC6)CC5)nc4c3F)c12 (single isomer, unassigned) [Compound 98B] | 11.2 | 0.826 | 36.7 | 11.6 | 6.03 |  |  | 
7 | C#Cc1cccc2cc(O)cc(-c3c(Cl)cc4c(N5CC6CCC(C5)N6)nc(OCC5(CN6CCOCC6)CC5)nc4c3Cl)c12 (single isomer, unassigned) [Compound 107B] | 399 | 3.16 |  |  |  | 395 | 57.6 | 150
8 | C#Cc1cccc2cc(O)cc(-c3ccc4c(N5CC6CCC(C5)N6)nc(OCC5(CN6CCOCC6)CC5)nc4c3F)c12 [Compound 34] | 12.6 | 8.73 |  |  |  | 19.1 | 2.16 | 11.1
9 | C#Cc1cccc2cc(O)cc(-c3c(Cl)cc4c(N5CC6CCC(C5)N6)nc(OCC5(CN6CCOCC6)CC5)nc4c3F)c12 [Compound 35] | 113 | 10.4 |  |  |  | 99.3 | 32.2 | 8.58
10 | C#Cc1cccc2cc(O)cc(-c3c(C4CC4)cc4c(N5CC6CCC(C5)N6)nc(OCC5(CN6CCOCC6)CC5)nc4c3F)c12 [Compound 38] | 126 | 13.8 |  |  |  | 141 | 19.8 | 51
11 | C#Cc1cccc2cc(O)cc(-c3c(C)cc4c(N5CC6CCC(C5)N6)nc(OCC5(CN6CCOCC6)CC5)nc4c3F)c12 [Compound 40] | 74.3 | 27.7 |  |  |  | 55.5 | 3.72 | 15.4
12 | C#Cc1cccc2cc(O)cc(-c3c(F)cc4c(N5CC6CCC(C5)N6)nc(OCC5(CN6CCOCC6)CC5)nc4c3F)c12 [Compound 41] | 211 | 9.17 |  |  |  | 18.7 | 2.63 | 6.96
13 | C#Cc1cccc2cc(O)cc(-c3c(F)cc4c(N5CC6CCC(C5)N6)nc(OCC5(CN6CCOCC6)CC5)nc4c3Cl)c12 [Compound 43] | 417 | 18 |  |  |  | 43.6 | 17.8 | 18.3
14 | C#Cc1cccc2cc(O)cc(-c3c(CCC#N)cc4c(N5CC6CCC(C5)N6)nc(OCC5(CN6CCOCC6)CC5)nc4c3F)c12 [Compound 44] | 18.2 | 2.14 |  |  |  | 185 | 3.81 | 13.2
15 | CCc1cccc2cc(O)cc(-c3ccc4c(N5CC6CCC(C5)N6)nc(OCC5(CN6CCOCC6)CC5)nc4c3F)c12 [Compound 47] | 262 | 7.21 |  |  |  | 76.3 | 29.6 | 68
16 | C#Cc1c(F)ccc2cc(O)cc(-c3ccc4c(N5CC6CCC(C5)N6)nc(OCC5(CN6CCOCC6)CC5)nc4c3F)c12 [Compound 48] | 17.7 | 7.14 |  |  |  | 19.9 | 0.794 | 1.14
17 | C#Cc1cccc2cc(O)cc(-c3c(CC)cc4c(N5CC6CCC(C5)N6)nc(OCC5(CN6CCOCC6)CC5)nc4c3F)c12 [Compound 49] | 26.3 | 3.51 |  |  |  | 88 | 16.8 | 10.7
18 | C#Cc1cccc2cc(O)cc(-c3ccc4c(N5CC6CC(C5)N6)nc(OCC5(CN6CCOCC6)CC5)nc4c3F)c12 [Compound 55] | 147 | 11.6 |  |  |  | 649 | 27.5 | 76.9
19 | C#Cc1cccc2cc(O)cc(-c3cc4nc(OCC5(CN6CCOCC6)CC5)nc(N5CC6CCC(C5)N6)c4cc3Cl)c12 [Compound 57] | 350 | 45.8 |  |  |  | 399 | 95.8 | 124
20 | C#Cc1cccc2cc(O)cc(-c3cc4nc(OCC5(CN6CCOCC6)CC5)nc(N5CC6CCC(C5)N6)c4cc3C#N)c12 [Compound 61] | 284 | 23.5 |  |  |  | 897 | 32.8 | 130
21 | Cc1ccc2cc(O)cc(-c3ccc4c(N5CC6CCC(C5)N6)nc(OCC5(CN6CCOCC6)CC5)nc4c3F)c2c1 [Compound 64] | 329 | 45.4 | 178 | 61.8 | 73 |  |  | 
22 | C#Cc1c(F)ccc2cc(O)cc(-c3ccc4c(N5CC6CCC(C5)N6)nc(OC[C@@]56CCCN5C[C@H](F)C6)nc4c3F)c12 [Compound 67] | 20.3 | 8.77 |  |  |  | 34.1 | 3.72 | 6.92

Source: US20240059710A1, “KRAS G12D Inhibitors” (Jacobio Pharmaceuticals Co., Ltd., priority 2020, published 2024)
